Data published in patent US11421194B2, “Pumpless platform for high-throughput dynamic multicellular culture and chemosensitivity evaluation” (Hackensack Meridian Health Center For Discovery and …, priority 2018, dated 2022).

Test system: MM.1S cells
Assay: Chemosensitivity evaluation of MM.1S cells to bortezomib in the pumpless culture platform (LIVE/DEAD in situ staining, HCS)
Type: cell-based, human
Settings: 4 h treatment, 24 h recovery
Description: The high-throughput capability of the pumpless culture platform was evaluated by studying the response of MM.1S cells to bortezomib at four different concentrations (0 nM, 5 nM, 10 nM, 20 nM). Bortezomib is a proteasome inhibitor that induces MM cell apoptosis.^29 Before introducing MM.1S cells, OSB were dynamically cultured for 4 days (in a CO2 incubator at […]). MM.1S cells were pre-labeled with 5 μM cell trace violet (Thermo Fisher Scientific), 10 μL MM.1S with a cell density of 4 million/ml were seeded into culture chambers ([…]). The device was then placed inside a CO2 incubator at 37° C. for 4 h to let MM.1S settle prior to starting the flow. Cells were co-cultured for another 24 h, and then treated with bortezomib for 4 h. After drug treatment, the medium was changed and cultures were allowed to recover for a 24 h period before analyses were conducted. MM.1S alone, cultured in the device but under static conditions were used as control.
Cell viability after treatment and recovery was determine as described above, using LIVE/DEAD Viability/Cytotoxicity Kit (0.1 μM calcein AM & 0.1 μM EthD-1). Culture chambers were scanned using HCS (CellInsight™ CX5, Thermo Fisher Scientific). Cell trace violet^+ calcein AM^+ cells were identified as live MM.1S and cell trace violet^+ EthD-1^+ cells were identified as dead cells, using pre-design CX5 software algorithms (HCS Studio 2.0 Cell Analysis Software) for cell quantification and rapid analysis.
Data quantification was performed automatically using the HCS Studio Software. The percentage of live (cell trace violet^+ calcein AM^+ cells/cell trace violet^+ cells) and dead (cell trace violet^+EthD-1^+/cell trace violet^+ cells) MM.1S cells were plotted against bortezomib concentration.

Structure (SMILES): CC(C)C[C@H](NC(=O)[C@H](Cc1ccccc1)NC(=O)c1cnccn1)B(O)O [bortezomib]
- viability at 0.005 µM (Homo sapiens, MM1.S, MM.1S cultured alone, static, bortezomib 5 nM, read-out: viability (percentage of live MM.1S: cell trace violet+ calcein AM+ cells/cell trace violet+ cells)): ~60%
- viability at 0.01 µM (Homo sapiens, MM1.S, MM.1S cultured alone, static, bortezomib 10 nM, read-out: viability (percentage of live MM.1S: cell trace violet+ calcein AM+ cells/cell trace violet+ cells)): ~15%
- viability (percentage of live MM.1S: cell trace violet+ calcein AM+ cells/cell trace violet+ cells) (MM.1S in co-culture with OSB (hFOB 1.19), dynamic culture, bortezomib treatment range 0 nM to 10 nM): ~70%
